Data published in patent US8188078B2 (Sanofi-Aventis, priority 2007, dated 2012).
Values belong to the compound of their own block, whether it stands above or below them.

Tests used:
c-MET = target: T1, c-MET (Homo sapiens, UniProt P08581); assay: Test A: HTRF Met test in 96-well format; assay type: biochemical
T1 construct: The recombinant DNA His-Tev-MET (956-1390) in pFastBac(Invitrogen); His (N, cleaved yes); Tev (TEV protease site) (N, cleaved yes); made in house; host or cells: SF21 insect cells (baculovirus, pFastBac)
T1 sequence (P08581 956-1390): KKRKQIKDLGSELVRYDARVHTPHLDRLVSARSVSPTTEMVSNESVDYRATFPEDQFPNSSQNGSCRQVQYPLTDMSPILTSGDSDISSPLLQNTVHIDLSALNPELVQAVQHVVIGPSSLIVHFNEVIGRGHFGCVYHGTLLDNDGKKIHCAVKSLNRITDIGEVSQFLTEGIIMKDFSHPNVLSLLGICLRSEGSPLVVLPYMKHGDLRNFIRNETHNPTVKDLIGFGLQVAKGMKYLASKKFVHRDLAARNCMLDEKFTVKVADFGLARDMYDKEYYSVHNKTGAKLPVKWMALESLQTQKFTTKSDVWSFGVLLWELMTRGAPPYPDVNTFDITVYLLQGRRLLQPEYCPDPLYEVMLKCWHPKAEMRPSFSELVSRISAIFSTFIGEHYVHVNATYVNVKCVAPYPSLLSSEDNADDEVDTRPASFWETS
Experimental: I) Expression and Purification of MET, Cytoplasmic Domain
The recombinant DNA His-Tev-MET (956-1390) in pFastBac(Invitrogen) is transfected in insect cells and after several stages of viral amplification, the final stock of baculovirus is tested for expression of the protein of interest.
After infection for 72 h at 27° C. with the recombinant virus, the SF21 cell cultures are harvested by centrifugation and the cellular deposits are stored at −80° C.
The cellular deposits are resuspended in the lysis buffer (buffer A [50 mM HEPES, pH 7.5, 250 mM NaCl, Glycerol 10%, TECP 1 mM]; +cocktail of protease inhibitors Roche Diagnostics without EDTA, ref 1873580), stirred at 4° C. until homogeneous, then lysed mechanically using apparatus of the “Dounce” type.
After centrifugation, the lysis supernatant is incubated for 2 h at 4° C. with Nickel Chelate resin (His-Trap 6 Fast Flow™, GE HealthCare). After washing with 20 volumes of Tp A, the suspension is packed in a column, and the proteins are eluted with a gradient of buffer B ([…]+290 mM imidazole).
The fractions containing the protein of interest with a view to electrophoretic analysis (SDS PAGE) are collected, concentrated by ultrafiltration (cut-off 10 kDa) and injected in an exclusion chromatography column (Superdex™ 200, GE HealthCare) equilibrated with buffer A.
After enzymatic cleavage of the tag Histidine, the protein is reinjected in a new IMAC Nickel Chelate chromatography column (His-Trap 6 Fast Flow™, GE HealthCare) equilibrated with Buffer A. The fractions eluted with a gradient of buffer B and containing the protein of interest after electrophoresis (SDS PAGE), are finally collected and stored at −80° C.
For the production of autophosphorylated protein, the preceding fractions are incubated for 1 h at room temperature after adding ATP 2 mM, MgCl2 2 mM, and Na3VO4 4 mM. After stopping the reaction with 5 mM of EDTA, the reaction mixture is injected in a HiPrep desalting column (GE HealthCare) equilibrated beforehand with buffer A+Na3VO4 4 mM; the fractions containing the protein of interest (SDS PAGE analysis) are collected and stored at −80° C. The degree of phosphorylation is verified by mass spectrometry (LC-MS), and by peptide mapping.
A) HTRF Met test in 96-well format
In a final volume of 50 μl of enzymatic reaction mixture, final c-MET 5 nM is incubated in the presence of the molecule to be tested (for a final concentration range from 0.17 nM to 10 μM, final DMSO 3%) in buffer MOPS 10 mM pH 7.4, DTT 1 mM, Tween 20 0.01%. The reaction is initiated by the substrate solution to obtain the final concentrations of poly-(GAT) 1 μg/ml, ATP 10 μM and MgCl2 5 mM. After incubation for 10 min at room temperature, the reaction is stopped with a mix of 30 μl to obtain a final solution of Hepes 50 mM pH 7.5, potassium fluoride 500 mM, BSA 0.1% and EDTA 133 mM in the presence of 80 ng Streptavidin 61SAXLB Cis-Bio Int. and 18 ng anti-phosphotyrosine Mab PT66-Europium Cryptate per well. After 2 hours of incubation at room temperature, reading is carried out at 2 wavelengths 620 nm and 665 nm in a reader for the TRACE/HTRF technique and the percentage inhibition is calculated according to the 665/620 ratios.

MET = target: T2, MET (Homo sapiens, UniProt P08581); assay: Test C: inhibition of the autophosphorylation of MET, ELISA technique (pppY1230, 1234, 1235), MKN45 cells; assay type: cell-based
T2 construct: endogenous in cells; host or cells: MKN45 cells
T2 sequence (P08581 25-1390): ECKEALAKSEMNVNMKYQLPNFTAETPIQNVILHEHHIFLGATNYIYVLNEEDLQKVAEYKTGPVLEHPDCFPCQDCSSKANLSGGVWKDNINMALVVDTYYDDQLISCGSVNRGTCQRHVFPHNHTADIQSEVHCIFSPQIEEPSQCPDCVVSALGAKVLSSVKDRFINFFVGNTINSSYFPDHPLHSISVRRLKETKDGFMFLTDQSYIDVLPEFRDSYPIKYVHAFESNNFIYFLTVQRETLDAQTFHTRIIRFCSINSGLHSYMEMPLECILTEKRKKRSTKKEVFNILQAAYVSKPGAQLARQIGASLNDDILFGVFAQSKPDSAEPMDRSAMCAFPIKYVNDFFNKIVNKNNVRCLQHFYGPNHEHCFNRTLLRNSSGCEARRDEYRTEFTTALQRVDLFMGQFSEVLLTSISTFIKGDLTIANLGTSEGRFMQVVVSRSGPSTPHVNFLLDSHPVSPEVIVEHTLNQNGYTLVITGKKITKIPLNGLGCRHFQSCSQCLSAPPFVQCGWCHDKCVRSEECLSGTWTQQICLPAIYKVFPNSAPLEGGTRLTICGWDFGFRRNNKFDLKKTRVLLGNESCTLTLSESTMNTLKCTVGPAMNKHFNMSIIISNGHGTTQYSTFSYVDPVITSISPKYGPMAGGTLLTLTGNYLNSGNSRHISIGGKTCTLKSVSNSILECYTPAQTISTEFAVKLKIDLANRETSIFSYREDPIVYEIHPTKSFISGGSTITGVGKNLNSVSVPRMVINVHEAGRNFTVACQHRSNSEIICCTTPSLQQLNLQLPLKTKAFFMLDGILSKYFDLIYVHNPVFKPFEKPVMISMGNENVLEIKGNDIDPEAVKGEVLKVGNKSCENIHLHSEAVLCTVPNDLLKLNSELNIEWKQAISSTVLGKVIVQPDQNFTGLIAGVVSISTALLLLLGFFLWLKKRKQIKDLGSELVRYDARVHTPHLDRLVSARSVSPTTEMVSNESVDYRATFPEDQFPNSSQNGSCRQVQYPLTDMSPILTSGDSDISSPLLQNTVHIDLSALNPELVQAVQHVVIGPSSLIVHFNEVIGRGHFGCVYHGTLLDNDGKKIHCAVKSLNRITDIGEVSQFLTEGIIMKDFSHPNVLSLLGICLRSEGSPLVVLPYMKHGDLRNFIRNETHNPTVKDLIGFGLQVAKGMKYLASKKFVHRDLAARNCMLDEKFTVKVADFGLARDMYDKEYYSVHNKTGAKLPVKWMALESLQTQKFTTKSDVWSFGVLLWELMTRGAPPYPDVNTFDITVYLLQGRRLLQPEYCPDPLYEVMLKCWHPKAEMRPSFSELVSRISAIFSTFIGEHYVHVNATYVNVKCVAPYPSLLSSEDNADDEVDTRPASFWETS
Experimental: C) Inhibition of the Autophosphorylation of MET; ELISA Technique (pppY1230, 1234, 1235)
a) Cellular lysates: Sow the MKN45 cells in a 96-well plate (Cell coat BD polylysine) at 20 000 cells/well under 200 μl of medium RPMI+10% FCS+1% L-glutamine. Leave to adhere to the incubator for 24 h.
The cells are treated on the day after sowing with the products at 6 concentrations in duplicate for 1 h. At least 3 control wells are treated with the same amount of final DMSO.
Dilution of the products: Stock at 10 mM in pure DMSO—range from 10 mM to 30 μM with steps of 3 of pure DMSO—Intermediate dilutions to 1/50 in culture medium then taking of 10 μl added directly to the cells (200 μl): final range from 10000 to 30 nM.
At the end of incubation, carefully remove the supernatant and rinse with 200 μl of PBS. Then put 100 μl of lysis buffer directly in the wells on ice and incubate at 4° C. for 30 minutes. Lysis buffer: 10 mM Tris, HCl pH7.4, 100 mM NaCl, 1 mM EDTA, 1 mM EGTA, 1% Triton X-100, 10% glycerol, 0.1% SDS, 0.5% deoxycholate, 20 mM NaF, 2 mM Na3VO4, 1 mM PMSF and antiprotease cocktail.
The 100 μl of lysates are transferred to a V-bottomed polypropylene plate and ELISA is performed next or the plate is frozen at −80° C.
b) ELISA PhosphoMET BioSource Kit KH00281
In each well of the plate from the kit, add 70 μl of dilution buffer from the kit+30 μL of cell lysate or 30 μl of lysis buffer for the blank. Incubate for 2 h at room temperature, stirring gently.
Rinse the wells 4 times with 400 μl of washing buffer from the kit. Incubate with 100 μl of anti-phospho MET antibodies for 1 h at room temperature.
Rinse the wells 4 times with 400 μl of washing buffer from the kit. Incubate with 100 μl of anti-rabbit HRP antibodies for 30 minutes at room temperature (except for the wells with chromogen only).
Rinse the wells 4 times with 400 μl of washing buffer from the kit. Add 100 μL of chromogen and incubate for 30 minutes in the dark at room temperature.
Stop the reaction with 100 μl of stop solution. Read at once at […] 0.1 second in the Wallac Victor plate reader.
The products of formula (I) as defined above show cellular activity in this test between 10 nM and 10 μM.

MKN45 cells = assay: Test D: cellular proliferation by 14C-thymidine pulse, MKN45 cells; assay type: cell-based; conditions: cell line not stated (HCT116 or MKN45)
Experimental: D) Measurement of Cellular Proliferation by 14C-Thymidine Pulse
The cells are sown in Cytostar 96-well plates under 180 μl for 4 hours at 37° C. and 5% CO2: The HCT116 cells at a rate of 2500 cells per well in DMEM medium+10% foetal calf serum+1% of L-glutamine and the MKN45 cells at a rate of 7500 cells per well in RPMI medium+10% foetal calf serum+1% of L-glutamine. After said incubation for 4 hours, the products are added under 10 μl in 20-times concentrated solution according to the method of dilution stated for ELISA. The products are tested at 10 concentrations in duplicate from 10000 nM to 0.3 nM in steps of 3.
After treatment for 72 h, add 10 μl of 14C-thymidine at 10 μCi/ml to obtain 0.1 μCi per well. The incorporation of 14C-thymidine is measured on a Micro-Beta (Perkin-Elmer) after 24 hours of pulse and 96 h of treatment.
All the stages of the test are automated on the BIOMEK 2000 or TECAN stations.

[1] = Homo sapiens, MKN-45, cellular proliferation by 14C-thymidine pulse

SMILES: Cc1cc(COc2ccc3nc(NC(=O)NCCN4CCOCC4)sc3c2)n(C)n1 [Example 20, 1-{6-[(1,3-dimethyl-1H-pyrazol-5-yl)methoxy]-1,3-benzothiazol-2-yl}-3-(2-morpholin-4-ylethyl)urea]
IC50 (c-MET): 100 to 10000 nM
IC50 (MKN45 cells; [1]): > 10000 nM
melting point: 160 °C

SMILES: CC(Oc1cc2sc(NC(=O)NCCN)nc2cc1F)c1c(Cl)ccc(F)c1Cl (single isomer, unassigned) [Example 90, 1-(2-aminoethyl)-3-{6-[(1S*)-1-(2,6-dichloro-3-fluorophenyl)ethoxy]-5-fluoro-1,3-benzothiazol-2-yl}urea]
IC50 (c-MET): < 100 nM
IC50 (MKN45 cells; cellular proliferation by 14C-thymidine pulse): 500 to 10000 nM

SMILES: CC(Oc1cc2sc(NC(=O)NCCCC(C)(C)OC(N)=O)nc2cc1F)c1c(Cl)ccc(F)c1Cl (centres unmarked) [Example 87, {2-[({6-[1-(2,6-dichloro-3-fluorophenyl)ethoxy]-5-fluoro-1,3-benzothiazol-2-yl}carbamoyl)amino]ethyl}2-methylpropan-2-yl carbamate]
melting point: 230 °C

SMILES: Nc1nc2ccc(OCc3c(F)cccc3Cl)cc2s1 [Example 8, 6-[(2-chloro-6-fluorobenzyl)oxy]-1,3-benzothiazol-2-amine]
IC50 (c-MET): 100 to 10000 nM
IC50 (MKN45 cells; [1]): > 10000 nM
melting point: 175 °C

SMILES: CC(Oc1cc2sc(NC(=O)NC3CC3)nc2cc1F)c1c(Cl)ccc(F)c1Cl (centres unmarked) [Example 131, 1-cyclopropyl-3-{6-[1-(2,6-dichloro-3-fluorophenyl)ethoxy]-5-fluoro-1,3-benzothiazol-2-yl}urea]
IC50 (c-MET): < 100 nM
IC50 (MET): < 500 nM
IC50 (MKN45 cells; [1]): < 500 nM

SMILES: CCN(CC)CCOC(=O)Nc1nc2cc(F)c(OC(C)c3c(Cl)ccc(F)c3Cl)cc2s1 (centres unmarked) [Example 71]
IC50 (c-MET): < 100 nM
IC50 (MET): 500 to 10000 nM
IC50 (MKN45 cells; [1]): 500 to 10000 nM

SMILES: CNC(=O)OC(C)(C)CCCNC(=O)Nc1nc2cc(F)c(OC(C)c3c(Cl)ccc(F)c3Cl)cc2s1 (centres unmarked) [Example 95, {2-[({6-[1-(2,6-dichloro-3-fluorophenyl)ethoxy]-5-fluoro-1,3-benzothiazol-2-yl}carbamoyl)amino]ethyl}2-methylpropan-2-yl methylcarbamate]
melting point: 151 to 193 °C

SMILES: Nc1nc2ccc(OCc3c(F)cccc3F)cc2s1 [Example 12, 6-[(2,6-difluorobenzyl)oxy]-1,3-benzothiazol-2-amine]
IC50 (MKN45 cells; [1]): > 10000 nM
melting point: 178 °C

SMILES: CC(Oc1cc2sc(NC(=O)NCCNC(=O)OC(C)(C)C)nc2cc1F)c1c(Cl)ccc(F)c1Cl (centres unmarked) [Example 87]
IC50 (c-MET): < 100 nM
IC50 (MET): 500 to 10000 nM
IC50 (MKN45 cells; [1]): 500 to 10000 nM

Other lines, results leading:

IC50 (c-MET): < 100 nM
IC50 (MET): 500 to 10000 nM
IC50 (MKN45 cells; [1]): 500 to 10000 nM
SMILES: COCCOC(=O)Nc1nc2cc(F)c(OC(C)c3c(Cl)ccc(F)c3Cl)cc2s1 (centres unmarked) [Example 72]

melting point: 235 to 240 °C
SMILES: CC(Oc1ccc2nc(C(COC(N)=O)N3CCOCC3)sc2c1)c1c(Cl)ccc(F)c1Cl (centres unmarked) [Example 74, {6-[1-(2,6-dichloro-3-fluorophenyl)ethoxy]-1,3-benzothiazol-2-yl}2-(morpholin-4-yl)ethyl carbamate]

IC50 (MKN45 cells; [1]): > 10000 nM
melting point: 95 to 105 °C
SMILES: CC(Oc1ccc2nc(NC(=O)NCCC3CCN(C(=O)OC(C)(C)C)CC3)sc2c1)c1c(Cl)ccc(F)c1Cl (centres unmarked) [Example 38, 1,1-dimethylethyl 4-{2-[({6-[1-(2,6-dichloro-3-fluorophenyl)ethoxy]-1,3-benzothiazol-2-yl}carbamoyl)amino]ethyl}piperidine-1-carboxylate]

melting point: 188 to 190 °C
SMILES: CCN(CC)C(CCOC(N)=O)c1nc2cc(F)c(OC(C)c3c(Cl)ccc(F)c3Cl)cc2s1 (centres unmarked) [Example 70, {6-[1-(2,6-dichloro-3-fluorophenyl)ethoxy]-5-fluoro-1,3-benzothiazol-2-yl}3-(diethylamino)propyl carbamate]

IC50 (c-MET): < 100 nM
IC50 (MET): < 500 nM
IC50 (MKN45 cells; [1]): 500 to 10000 nM
SMILES: CC(Oc1ccc2nc(NC(=O)NCCC3CCN(Cc4ccccc4)CC3)sc2c1)c1c(Cl)ccc(F)c1Cl (centres unmarked) [Example 52, 1-[2-(1-benzylpiperidin-4-yl)ethyl]-3-{6-[1-(2,6-dichloro-3-fluorophenyl)ethoxy]-1,3-benzothiazol-2-yl}urea]

melting point: 200 to 205 °C
SMILES: COC(COC(N)=O)c1nc2cc(F)c(OC(C)c3c(Cl)ccc(F)c3Cl)cc2s1 (centres unmarked) [Example 72, {6-[1-(2,6-dichloro-3-fluorophenyl)ethoxy]-5-fluoro-1,3-benzothiazol-2-yl}2-methoxyethyl carbamate]

IC50 (c-MET): 100 to 10000 nM
IC50 (MET): 500 to 10000 nM
SMILES: CC(Oc1ccc2nc(NC(=O)NCCN3CCOCC3)sc2c1)c1c(Cl)ccc(F)c1Cl (single isomer, unassigned) [Example 26, 1-{6-[(1S*)-(2,6-dichloro-3-fluorophenyl)ethoxy]-1,3-benzothiazol-2-yl}-3-(2-morpholin-4-ylethyl)urea]

melting point: 184 to 186 °C
SMILES: CCN(CC)C(COC(N)=O)c1nc2cc(F)c(OC(C)c3c(Cl)ccc(F)c3Cl)cc2s1 (centres unmarked) [Example 71, {6-[1-(2,6-dichloro-3-fluorophenyl)ethoxy]-5-fluoro-1,3-benzothiazol-2-yl}2-(diethylamino)ethyl carbamate]
